The record followed here is patent US20120225889A1, “USE OF MACROCYCLIC LACTONE DERIVATIVES FOR THE TREATMENT OF INFLAMMATORY DISORDERS” (PIRAMAL LIFE SCIENCES LIMITED, priority 2010, published 2012).

The IC50 is the concentration needed to halve the response being measured.

Assay [1] concerns TNF-α. Kind of assay: Synovial tissue assay (spontaneous production): TNF-α. In kind it is cell-based. The settings on record: Homo sapiens, synovial tissue cells from rheumatoid arthritis patients, 16 h, read-out: IC50 of TNF-α inhibition. The text has this:
The ability of compounds of the present invention to inhibit spontaneous production of cytokines from freshly isolated human synovial tissue cells was designed as in reference, Lancet, 29, 244-247, (1989) the disclosure of which is incorporated by reference for the teaching of the assay.
Synovial tissue was obtained from rheumatoid arthritis patients undergoing knee replacement surgery. […] Subsequently, the cells were washed 3 times with RPMI 1640 culture medium and resuspended in complete medium (RPMI 1640 culture medium supplemented with 5% FBS and 5% human serum-AB+(Sigma, USA) at a concentration of 1×10^6 cells/mL. The viability of synovial cells was determined by trypan blue dye exclusion and was uniformly ≧98%. For the experiment, 100 μL of cell suspension was added to the wells of a 96-well culture plate (Nunc, USA). Following cell plating, 100 μL of the culture medium and 1 μL of various concentrations of the test compound (test compound was dissolved in DMSO to obtain a stock solution of 20 mM. […] The IC50 values were calculated by a nonlinear regression method using the GraphPad software (Prism 3.03).

In assay [2] the test system is DBA/1J mice with collagen induced arthritis. Kind of assay: Arthritic mice: administration by osmotic pumps. The format is in vivo. The following applies: sub-cutaneous osmotic pumps, 240 μg/mouse/24 h, 26 days. Here is the method: The experiment was performed in DBA/1J mice, in which arthritis was developed by injection of collagen emulsion, as described in Example 26.
The animals were divided into two groups, viz. a control group and a test compound treated group, having 6 animals each. The clear solution of test compound was prepared in 100% dimethyl sulfoxide (DMSO) and then DMSO concentration was brought down to 25% by addition of appropriate quantities of ethanol and polyethylene glycol 400 (PEG 400), so that the proportion of each solvent in a final solution v/v was 25:15:60::DMSO:EtOH:PEG-400. By this method absolutely clear solution of the compound having a final concentration of 40 mg/mL was obtained. This solution was filtered through 0.2μ filter and was filled in osmotic pumps (Alzet micro-osmotic pump model 1002). The delivery rate of this model of pump is 0.25 μL per hour and it remains functional for 14 days.
These pumps were then implanted sub-cutaneously in the animals of the test compound treated group (240 μg/mouse/24 h). The pumps filled with blank solvent were implanted sub-cutaneously in the animals of control group. Thereafter, their paws were scored for arthritic indices, in addition to measurement of thickness, daily once. After 14 days, the pumps were replaced with freshly filled pumps and the experiment was continued for next 12 days (total 26 days).

For assay [3] the test system is unchanged. Kind of assay: Collagen-induced arthritis in mice. The format is in vivo. Here is the method:
The experiment was designed as in reference, J. Experimental Medicine, 162, 637-646 (1985), the disclosure of which is incorporated by reference for the teaching of the experiment.
Male DBA/1J mice with body weight range of 18-22 g, aged 8-10 weeks were immunized with an emulsion equivalent to 200 μg of type II collagen (Elastin products, USA) in Freund's Complete Adjuvant (Sigma, USA), injected intradermally at the base of the tail. The animals were boosted with 200 μg of freshly prepared typeII collagen emulsion emulsified in Freund's Complete Adjuant (Sigma, USA) on day 21. A group of naïve mice was also maintained alongside. Naïve animals are the animals which are neither immunized for induction of arthritis nor do they receive any treatment. This group is maintained to take care of the normal changes in the paw thickness with age.
From day 23, mice were examined daily once for the signs of rheumatoid arthritis, using the articular index and paw thickness as parameters. Articular index scoring was performed employing the following criteria:
• 0: No redness or swelling • 1: Redness, but no swelling • 2: Redness and swelling of the paw • 3: Redness and severe swelling of the paw Hind limbs: Scale 0-4 • 0: No redness or swelling • 1: Redness and mild swelling of paw • 2: Redness and moderate swelling of paw and/or swelling of at least one of the digits • 3: Redness and moderate/severe swelling of paw, swelling of ankle joint and/or swelling of one or more digits • 4: Redness and severe swelling of paw, digits and ankle joint, with joint stiffness Mice with a minimum hind paw score of 2, of even one paw, were inducted into the study. Mice were randomized into the various study groups, each group having at least eight animals, and were administered the vehicle (0.5% CMC, 10 mL/kg p.o. and s.c. twice daily), the test compound (5 mg/kg, p.o. and s.c., twice daily) and standard compound Enbrel (Wyeth Limited, UK), 3 mg/kg, s.c., once daily. The test compound was administered as a suspension in CMC. The requisite quantity of the compound was accurately weighed and was hand-pulverized using pestle-mortar. After mixing with minimum quantity of Tween 80 necessary to wet the compound, requisite quantity of 0.5% CMC solution was added and the compound was ground with CMC till the uniform suspension was obtained. Standard compound ‘Enbrel’ was used as an aqueous solution. The dosing of the compounds was done for 12 continuous days.
The following parameters were observed and recorded daily, • 1. Body weight • 2. Articular index • 3. Paw thickness of hind limbs only, in mm using a tension free calipers • 4. Any significant observation regarding the condition of the animals.
On 13th day morning, 1 h after the compound treatment, the animals were sacrificed, blood withdrawn, and plasma collected for drug level analyses. Also, the hind limbs of all the animals were preserved for histopathological evaluations.

Regarding `C/C=C/C(O)C(C)/C=C/C(=N\O)C(C)C(O)C(C)C1OC(=O)/C(OC)=C/C(C)=C/C(C)C(O)C(CC)C(O)C(C)C/C(C)=C/C=C/C1OC` (stereo not drawn) [Compound of example 7, (3Z,5E,13E,15E)-18-((5Z,6E,10E)-3,9-Dihydroxy-5-(hydroxymino)-4,8-dimethyldodeca-6,10-dien-2-yl)-9-ethyl-8,10-dihydroxy-3,17-dimethoxy-5,7,11,13-tetramethyl oxacyclooctadeca-3,5,13,15-tetraen-2-one], the IC50 in assay [1] was 19 µM. Also, the “severity of arthritis (arthritic scores and paw thickness)” value in assay [2] is “reduces severity of arthritis”. In addition, the severity of arthritis result in assay [3] (5.0 mg/kg CMC suspension, subcutaneously twice daily, 12 days) is given as “reduced the severity of arthritis”. In assay [3] (5.0 mg/kg s.c. twice daily vs Enbrel 3 mg/kg, s.c., once daily), the “benefit compared with Enbrel” value is reported as “equal to that achieved with Enbrel treatment”. Also, in assay [3] (5 mg/kg, s.c.), the “arthritic changes of joints (histopathology observations)” value is “showed protection against arthritic changes with absence of hyperplasia of synovium”. In assay [3] (compound of example 7 5 mg/kg, s.c., n=10, Enbrel 3 mg/kg, s.c., n=6, vehicle control 15.14+1.0), the “Histological score of the section of paws” value was 3.6+1.54.
